In US9187471B2, “Pyrido [4,3-b] indole and pyrido [3,4-b] indole derivatives and methods of use” (Medivation Technologies, Inc., priority 2010, dated 2015):

Experiments:
[1] = target: T1, rat adrenergic α1A receptor (Rattus norvegicus, UniProt P43140); test: Adrenergic α1A radioligand binding ([3H]Prazosin); settings: read-out: Adrenergic (0.1 μM) a1A, percent inhibition of specific binding; compound at 0.1 μM; 0.25 nM [3H]Prazosin
T1 construct: rat adrenergic α1A receptor obtained from Wistar Rat submaxillary glands; from tissue; host or cells: Wistar rat submaxillary glands
T1 sequence (P43140 1-466): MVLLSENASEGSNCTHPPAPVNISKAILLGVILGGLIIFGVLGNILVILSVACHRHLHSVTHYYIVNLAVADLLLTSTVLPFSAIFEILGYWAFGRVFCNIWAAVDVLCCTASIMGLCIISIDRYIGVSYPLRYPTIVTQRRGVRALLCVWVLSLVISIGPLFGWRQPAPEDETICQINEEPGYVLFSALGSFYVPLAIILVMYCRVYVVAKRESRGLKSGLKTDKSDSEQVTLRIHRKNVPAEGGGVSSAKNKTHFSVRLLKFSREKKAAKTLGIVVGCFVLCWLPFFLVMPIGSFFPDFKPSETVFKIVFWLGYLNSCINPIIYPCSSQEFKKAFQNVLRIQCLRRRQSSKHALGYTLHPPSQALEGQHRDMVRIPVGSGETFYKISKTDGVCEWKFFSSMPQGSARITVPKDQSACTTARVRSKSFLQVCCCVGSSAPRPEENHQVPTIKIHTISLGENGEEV
Method in brief: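 Wistar rat submaxillary gland receptor in 50 mM Tris-HCl pH 7.4 with 0.5 mM EDTA, incubated with compound and 0.25 nM [3H]Prazosin for 60 min at 25 °C.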

[2] = target: T2, Adrenergic α1B (Rattus norvegicus, UniProt P15823); test: Adrenergic α1B radioligand binding ([3H]Prazosin); settings: read-out: Adrenergic (0.1 μM) a1B, percent inhibition of specific binding; compound at 0.1 μM; 0.25 nM [3H]Prazosin; Wistar Rat liver
T2 construct: rat adrenergic α1D receptor obtained from Wistar Rat liver; from tissue; host or cells: Wistar rat liver
T2 sequence (P15823 1-515): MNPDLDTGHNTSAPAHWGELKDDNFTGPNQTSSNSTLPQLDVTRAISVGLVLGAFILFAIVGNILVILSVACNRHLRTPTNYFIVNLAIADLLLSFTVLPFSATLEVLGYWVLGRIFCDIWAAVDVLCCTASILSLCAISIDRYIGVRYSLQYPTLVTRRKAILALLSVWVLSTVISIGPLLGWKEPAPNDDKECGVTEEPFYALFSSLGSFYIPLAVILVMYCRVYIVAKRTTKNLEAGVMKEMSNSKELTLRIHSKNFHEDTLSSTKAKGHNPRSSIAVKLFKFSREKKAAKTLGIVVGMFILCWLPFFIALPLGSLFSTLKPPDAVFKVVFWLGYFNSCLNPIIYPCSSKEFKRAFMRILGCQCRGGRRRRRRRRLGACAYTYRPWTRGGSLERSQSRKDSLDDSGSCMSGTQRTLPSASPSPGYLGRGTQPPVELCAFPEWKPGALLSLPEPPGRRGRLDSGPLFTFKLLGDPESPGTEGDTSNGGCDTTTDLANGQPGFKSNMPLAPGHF
Experimental: To evaluate in radioligand binding assays the activity of compounds of the invention, rat adrenergic α1D receptor obtained from Wistar Rat liver (Garcia-S'ainz, J. et al, Biochem. Biophys. Res. Commun. 186:760, 1992; Michel, A. et al, Br. J. Pharmacol. 98:883, 1989) in a modified Tris-HCl buffer (50 mM Tris-HCl buffer, pH 7.4, 0.5 mM EDTA) was used. Compounds of the invention were incubated with 0.25 nM [^3H]Prazosin for 60 min at 25° C. Non-specific binding was estimated in the presence of 10 μM phentolamine Receptor proteins were filtered and washed, the filters were then counted to determine [^3H]Prazosin specifically bound. […] Compounds of the invention were tested in this biochemical assay and percent inhibition of specific binding was determined.

[3] = target: T3, human recombinant adrenergic α2A receptor (Homo sapiens, UniProt P08913); test: Adrenergic α2A radioligand binding ([3H]MK-912); settings: read-out: Adrenergic (0.1 μM) a2A, percent inhibition of specific binding; compound at 0.1 μM; 1 nM [3H]MK-912
T3 construct: expressed in transfected cells; host or cells: insect Sf9 cells
T3 sequence (P08913 1-465): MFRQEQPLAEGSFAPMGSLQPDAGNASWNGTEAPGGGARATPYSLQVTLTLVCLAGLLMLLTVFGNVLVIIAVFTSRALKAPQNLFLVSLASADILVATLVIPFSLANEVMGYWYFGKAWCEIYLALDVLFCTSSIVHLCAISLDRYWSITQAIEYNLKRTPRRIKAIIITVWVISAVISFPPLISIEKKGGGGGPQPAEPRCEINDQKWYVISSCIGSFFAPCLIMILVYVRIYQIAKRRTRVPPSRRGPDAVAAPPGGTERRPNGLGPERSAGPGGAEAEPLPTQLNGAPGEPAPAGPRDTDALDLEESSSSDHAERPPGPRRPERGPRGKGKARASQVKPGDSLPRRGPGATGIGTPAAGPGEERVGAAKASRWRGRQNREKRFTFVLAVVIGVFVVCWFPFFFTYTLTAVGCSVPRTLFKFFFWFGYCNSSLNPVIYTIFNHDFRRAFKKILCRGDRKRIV
Experimental: To evaluate in radioligand binding assays the activity of compounds of the invention, human recombinant adrenergic α2A receptor expressed in insect Sf9 cells (Uhlen, S. et al, J. Pharmacol. Exp. Ther. 271:1558, 1994) in a modified Tris-HCl buffer (50 mM Tris-HCl, pH 7.4, 12.5 mM MgCl2, 2 mM EDTA) was used. Compounds of invention were incubated with 1 nM [^3H]MK-912 for 60 min at 25° C. MK-912 is (2S-trans)-1,3,4,5′,6,6′,7,12b-octahydro-1′,3′-dimethyl-spiro[2H-benzofuro[2,3-a]quinolizine-2,4′(1′H)-pyrimidin]-2′(3′H)-one hydrochloride Non-specific binding was estimated in the presence of 10 μM WB-4101 (2-(2,6-Dimethoxyphenoxyethyl)aminomethyl-1,4-benzodioxane hydrochloride). Receptor proteins were filtered and washed, the filters were then counted to determine [^3H]MK-912 specifically bound. […] Compounds of the invention were tested in this biochemical assay and percent inhibition of specific binding was determined.

[4] = target: T4, human recombinant dopamine D2L receptor (Homo sapiens, UniProt P14416); test: Dopamine D2L radioligand binding ([3H]Spiperone); settings: read-out: Dopamine D2L (1 μM), percent inhibition of specific binding; compound at 1 μM; 0.16 nM [3H]Spiperone
T4 construct: expressed in transfected cells; host or cells: CHO
Experimental: Non-specific binding was estimated in the presence of 10 μM Haloperidol. Receptor proteins were filtered and washed, the filters were then counted to determine [^3H]Spiperone specifically bound.

[5] = target: T5, human recombinant serotonin (5-Hydroxytryptamine) 5-HT2A receptor (Homo sapiens, UniProt P28223); test: Serotonin 5-HT2A radioligand binding ([3H]Ketanserin); settings: compound at 0.1 μM; read-out: Inhibition of ligand binding, Serotonin 5-HT2A (percent inhibition of specific binding)
T5 construct: expressed in transfected cells; host or cells: CHO-K1
Experimental: Compounds of the invention were incubated with 0.5 nM [^3H]Ketanserin for 60 min at 25° C. Non-specific binding was estimated in the presence of 1 μM Mianserin. Receptor proteins were filtered and washed, the filters were then counted to determine [^3H]Ketanserin specifically bound.

T5 sequence (P28223 whole entry): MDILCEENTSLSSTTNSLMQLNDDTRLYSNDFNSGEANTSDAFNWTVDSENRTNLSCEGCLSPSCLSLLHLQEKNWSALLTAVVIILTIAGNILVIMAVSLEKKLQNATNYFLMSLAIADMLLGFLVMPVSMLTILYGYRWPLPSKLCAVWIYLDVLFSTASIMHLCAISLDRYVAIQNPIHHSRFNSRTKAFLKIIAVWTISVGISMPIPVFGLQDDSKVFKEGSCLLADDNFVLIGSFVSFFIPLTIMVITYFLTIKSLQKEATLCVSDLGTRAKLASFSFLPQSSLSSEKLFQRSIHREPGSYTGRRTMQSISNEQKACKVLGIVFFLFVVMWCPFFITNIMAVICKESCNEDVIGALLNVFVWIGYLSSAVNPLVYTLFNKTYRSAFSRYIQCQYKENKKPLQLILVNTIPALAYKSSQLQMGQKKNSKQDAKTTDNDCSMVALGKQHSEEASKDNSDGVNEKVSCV
T4 sequence (P14416 whole entry): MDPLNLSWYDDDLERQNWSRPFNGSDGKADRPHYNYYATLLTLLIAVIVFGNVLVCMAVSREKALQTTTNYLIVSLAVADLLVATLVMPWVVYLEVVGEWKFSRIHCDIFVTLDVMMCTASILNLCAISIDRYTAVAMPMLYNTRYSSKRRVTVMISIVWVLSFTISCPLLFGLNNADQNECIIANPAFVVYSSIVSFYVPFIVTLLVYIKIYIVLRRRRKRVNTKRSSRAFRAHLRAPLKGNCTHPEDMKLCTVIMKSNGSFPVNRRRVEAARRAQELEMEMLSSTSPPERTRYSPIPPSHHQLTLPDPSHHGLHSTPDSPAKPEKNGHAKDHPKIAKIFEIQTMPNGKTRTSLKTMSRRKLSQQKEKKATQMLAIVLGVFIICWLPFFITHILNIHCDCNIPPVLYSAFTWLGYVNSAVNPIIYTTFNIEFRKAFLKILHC

Compound: Cc1ccc2c(c1)c1c(n2-c2cscc2-c2ccc3c(ccn3C)c2)CCN(C)C1 [Compound 33]
- inhibition at 0.1 µM [1]: 57%
- inhibition at 0.1 µM [2]: 52%
- inhibition at 0.1 µM [3]: 100%
- inhibition at 1 µM [4]: 19%
- inhibition at 0.1 µM [5]: 39%

Compound: CNC(=O)c1cccc(-c2ccc(-n3c4c(c5cc(C)ccc53)CN(C)CC4)nc2)c1 [Compound No. 143, 3-(6-(2,8-dimethyl-3,4-dihydro-1H-pyrido[4,3-b]indol-5(2H)-yl)pyridin-3-yl)-N-methylbenzamide]
- inhibition at 0.1 µM [1]: 32%
- inhibition at 0.1 µM [2]: 83%
- inhibition at 0.1 µM [3]: 44%
- inhibition at 1 µM [4]: 19%
- inhibition at 0.1 µM [5]: 55%
